The source of these data is patent US20050107257A1, “Derivatives of (1-benzyl-piperidine-4-yl)-diphenyl-methanol and their use as pesticide” (priority 2002, published 2005).

For one data set, the system named is Heliothis virescens. As to the kind of experiment: Action against Heliothis virescens caterpillars (sprayed soybean plants). It is filed as in vivo. The settings on record: 144 h, 400 ppm spray mixture, first-stage caterpillars, evaluation 6 days later, read-out: % activity (percentage reduction in population and percentage reduction in feeding damage). How it is done: Young soybean plants are sprayed with an aqueous emulsion spray mixture comprising 400 ppm of test compound. After the spray-coating has dried, the soybean plants are populated with 10 caterpillars of Heliothis virescens in the first stage and placed in a plastics container. Evaluation is made 6 days later. The percentage reduction in population and the percentage reduction in feeding damage (% activity) are determined by comparing the number of dead caterpillars and the feeding damage on the treated plants with that on untreated plants.

Another data set relates to Plutella xylostella. As to the kind of experiment: Action against Plutella xylostella caterpillars (sprayed cabbage plants). It is filed as in vivo. Particulars: 72 h, 400 ppm spray mixture, third-stage caterpillars, evaluation 3 days later, read-out: % activity (percentage reduction in population and percentage reduction in feeding damage). The protocol:
Young cabbage plants are sprayed with an aqueous emulsion spray mixture comprising 400 ppm of test compound. After the spray-coating has dried, the cabbage plants are populated with 10 caterpillars of Plutella xylostella in the third stage and placed in a plastics container. Evaluation is made 3 days later. The percentage reduction in population and the percentage reduction in feeding damage (% activity) are determined by comparing the number of dead caterpillars and the feeding damage on the treated plants with that on the untreated plants.

A further data set deals with Diabrotica balteata. As to the kind of experiment: Action against Diabrotica balteata larvae (sprayed maize seedlings). It is filed as in vivo. Particulars: 144 h, 400 ppm spray mixture, second-stage larvae, evaluation 6 days later, read-out: % activity (percentage reduction in population). How it is done:
Maize seedlings are sprayed with an aqueous emulsion spray mixture comprising 400 ppm of the test compound. After the spray-coating has dried, the maize seedlings are populated with 10 Diabrotica balteata larvae in the second stage and placed in a plastics container. Evaluation is made 6 days later. The percentage reduction in population (% activity) is determined by comparing the number of dead larvae on the treated plants with that on untreated plants.

The next data set concerns Spodoptera littoralis. As to the kind of experiment: Action against Spodoptera littoralis caterpillars (sprayed soybean plants). It is filed as in vivo. Particulars: 72 h, 400 ppm spray mixture, third-stage caterpillars, evaluation 3 days later, read-out: % activity (percentage reduction in population and percentage reduction in feeding damage). The protocol:
Young soybean plants are sprayed with an aqueous emulsion spray mixture comprising 400 ppm of test compound. After the spray-coating has dried, the soybean plants are populated with 10 caterpillars of Spodoptera littoralis in the third stage and placed in a plastics container. Evaluation is made 3 days later. The percentage reduction in population and the percentage reduction in feeding damage (% activity) are determined by comparing the number of dead caterpillars and the feeding damage on the treated plants with that on untreated plants.

The compound `CC(C)OC(=O)Nc1ccc(CN2CC[C@@H](C(O)(c3ccc(C(F)(F)F)cc3)c3ccc(C(F)(F)F)cc3)[C@H](C)C2)cc1` [Compound 2.6] returned a melting point of 66 to 67 °C. The inhibition at 400 ppm with Heliothis virescens was above 80%. For the same compound, the inhibition at 400 ppm in the data set with Plutella xylostella is above 80%. Moreover, the inhibition at 400 ppm with Diabrotica balteata is above 80%. For the same compound, in the data set with Spodoptera littoralis, the inhibition at 400 ppm is above 80%.
For `CC(C)OC(=O)Nc1ccc(C[N+]2([O-])CC[C@@H](C(O)(c3ccc(C(F)(F)F)cc3)c3ccc(C(F)(F)F)cc3)[C@H](C)C2)cc1` (some centres unmarked) [Compound 2.5], the melting point was 188 to 190 °C. Also, the inhibition at 400 ppm in the data set on Heliothis virescens was above 80%. Moreover, the inhibition at 400 ppm with Plutella xylostella is above 80%. The inhibition at 400 ppm in the data set on Diabrotica balteata was above 80%. Also, the inhibition at 400 ppm in the data set on Spodoptera littoralis was above 80%.
Take `CCC1=C(C(O)(c2ccc(C(F)(F)F)cc2)c2ccc(C(F)(F)F)cc2)CC[N+]([O-])(Cc2ccc(NC(=O)OC(C)C)cc2)C1` (centres unmarked) [Compound 1.11]: the melting point fell in the range of 207 to 211 °C.

As a reminder, the melting point is the temperature, or range, at which the solid turns liquid.
